Consider seven compounds from patent US10011868B2, “Reactivity-dependent and interaction-dependent PCR” (priority 2009, dated 2018).

Like-named read-outs stand apart in the source and are kept apart here. Numbered stars: 1 amine (or outer) side, 2 acyl side, 3 side chain; on linkers, the order of the positions; unused ones are H or OH. Peptide text beside a SMILES is read from it. CO = O=C([*:1])[*:2]

In series [1] the target is T1, streptavidin (Streptomyces avidinii, UniProt P22629).
T1 construct: 5'-carboxylate ssDNA oligonucleotide 1a (Cy3-labelled), chemically coupled via NHS ester; purchased New England Biolabs
Briefly: Gel shift of 2b-desthiobiotin/streptavidin complex (FIG. 25c). Type of series: binding. The note with it: duplex 10 nM, read-out: apparent Kd for streptavidin. The method, then: The DNA-ligand conjugate 2b-desthiobiotin was hybridized to a complementary 20-mer carrying a Cy3 label at the 3′-end. The resulting duplex (10 nM) was incubated with increasing concentrations of streptavidin in binding buffer (145 mM NaCl, 10 mM Tris/HCl, 10 mM MgCl2, 7 mM Na2PO4, 1.9 mM KCl, 1 mM dithiothreitol, pH 7.4), for 1 h and analyzed on a 20% TBE polyacrylamide gel. The appearance of a higher molecular weight band indicated formation of a streptavidin-2b-desthiobiotin complex. The apparent Kd was determined from the streptavidin concentration for which the bands corresponding to free DNA and to the complex were of approximately equal intensity.
(A gel shift assay detects complexes by their altered migration in electrophoresis.)

In series [2] the target is T2, streptavidin (1a-SA) (Streptomyces avidinii, UniProt P22629).
T2 construct: 5'-carboxylate ssDNA oligonucleotide 1a (Cy3-labelled), chemically coupled via NHS ester; purchased New England Biolabs
Briefly: ID-PCR on single target-ligand pair, qPCR threshold cycle (FIG. 20b). Type of series: binding. The note with it: with 1a-SA, Klenow extension and qPCR.
Experimental: We investigated whether binding between a small molecule and a protein could replace a covalent linkage in a DNA hairpin and support extension and PCR. […] The target and ligand strands shared a 6-nt complementary region.
An extension mixture consisting of 10×NEB Buffer 2 (2 μL), dNTPs (660 pmol each in 2 μL water), and the target strand (200 fmol in 9 μL PBS) was incubated at 37° C. for 5 minutes. The appropriate ligand strand (200 fmol in 2 μL water) was added and the reaction mixture was incubated at 37° C. for 15 minutes. Klenow fragment exo^− (2.5 U in 5 μL of 1×NEB Buffer 2, New England Biolabs) was added. The primer extension reaction (final volume=20 μL) was incubated at 37° C. for 15 minutes. The polymerase was inactivated by heating to 75° C. for 20 minutes.
For each 25 μL qPCR reaction, 12.5 μL of 2×SYBR Green iQ Supermix (Bio-Rad) was combined with 1 μL of 10 μM Primer A, 1 μL of 10 μM Primer B, and 9.5 μL Milli Q H2O. […] Quantitative PCR was performed using a CFX-96 Real-Time System with a C1000 Thermal Cycler (Bio-Rad). […]
All primer extension and qPCR reactions were performed as described above, except that free ligand (200 pmol in 2 μL 10% DMSO) or DMSO (2 μL of 10% DMSO) was added when appropriate. […] Unless otherwise noted, PCR products were analyzed by PAGE on 10% TBE gels at 200 V for 25 minutes staining with ethidium bromide and imaging on a Chemilmager (AlphaInnotech). […]

Series [3] has as its target T3, carbonic anhydrase (Bos taurus, UniProt P00921). Briefly: Carbonic anhydrase enzymatic activity inhibition, 4-nitrophenyl acetate substrate (FIG. 25a,b). Particulars: 37° C.; read-out: Ki for CA. The series is classed as biochemical, bovine.
Series [4] has as its target T3, carbonic anhydrase. Briefly: ID-PCR model selection, ligand library x target library in one solution (FIG. 22). Type of series: binding, bovine. Particulars: DNA-linked ligand; relative to control lacking proteins; 261 ligand x 259 target sequences. As to the method:
(§1) Finally, we tested the ability of ID-PCR to simultaneously evaluate all possible combinations of multiple ligands and multiple targets in a single solution. […] The negative control ligand and target were conjugated to libraries of 256 different sequence tags. The resulting solution therefore contained equimolar quantities of each of 261 ligand sequences and each of 259 target sequences, collectively representing 67,599 possible ligand-target sequence combinations. A control sample was prepared identically except using DNA not conjugated to any protein targets. Both samples were subjected to ID-PCR followed by high-throughput DNA sequencing.
(§2) A control primer extension reaction was also performed using the same pool of ligand strands, but with a pool of target strands lacking conjugated proteins (1, 1i, 1j, 60 pM each and 1k, 9.8 nM). Adapter sequences required for Illumina sequencing, as well as barcodes identifying the input and selection experiments, were installed by PCR with either Primer C (input control) or Primer D (selection) and Primer E. The appropriate cycle number for each reaction was determined by qPCR evaluation, such that preparative PCR reactions (50 μL total volume) were stopped in the exponential amplification phase in order to minimize dynamic compression during PCR. […]

Series [5] deals with carbonic anhydrase II (CA) (Bos taurus, UniProt P00921). The note with it: cited from earlier work.
Series [6] deals with T1, streptavidin. Briefly: ID-PCR model selection, ligand library x target library in one solution (FIG. 22). Type of series: binding. Particulars: DNA-linked ligand; relative to control lacking proteins; 261 ligand x 259 target sequences. As to the method:
as §1, §2

Series [7] addresses T4, trypsin (Bos taurus, UniProt P00760).
T4 sequence (P00760 24-246): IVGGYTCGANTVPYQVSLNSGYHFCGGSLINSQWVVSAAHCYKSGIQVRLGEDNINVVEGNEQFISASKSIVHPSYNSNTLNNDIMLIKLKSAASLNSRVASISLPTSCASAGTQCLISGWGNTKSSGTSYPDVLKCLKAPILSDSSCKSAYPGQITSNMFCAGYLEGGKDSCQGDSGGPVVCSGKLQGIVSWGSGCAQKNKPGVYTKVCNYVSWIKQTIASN
Briefly: Trypsin inhibition, fluorogenic substrate Z-Arg-AMC (FIG. 25d). The series is classed as biochemical, bovine. As to the method: Conditions were adopted from a previously reported protocol.^17 Trypsin (200 fmol) was diluted in 90 μL PBS and was incubated with various concentrations of antipain, a known inhibitor of tryptic proteolysis, or 2e-antipain. The solution was equilibrated at room temperature for 10 minutes and at 35° C. for 5 minutes before addition of the fluorogenic proteolytic substrate Z-Arg-AMC (Bachem) (10 nmol in 10 μL 50% DMSO) (final volume=100 μL).
Equation Used to Fit Ki from Inhibitory Curves (FIGS. 25a, b, d).
The Ki was determined by fitting the following equation to the plot of normalized activity vs. inhibitor concentration: Vo=c+d(([E]tot+[i]tot+Ki)−sqrt((−[E]tot−[I]tot−Ki)^2−4*[E]tot*[I]tot))/(2*[E]tot), where Vo is initial reaction velocity, [E]tot is total enzyme concentration, [I]rot is total inhibitor concentration; c and d are variable parameters for the maximum Vo and for the difference between the minimum and maximum Vo, respectively.

The target in series [8] is T4, trypsin. Particulars: trypsin and antipain; cited from earlier work.
Series [9] has as its target streptavidin (SA) (Streptomyces avidinii, UniProt P22629). The note with it: free ligand and streptavidin; cited from earlier work.
The target of series [10] is 68-nt DNA aptamer that binds daunomycin. Particulars: DNA aptamer and daunomycin; cited from earlier work.

T3 sequence (P00921 whole entry): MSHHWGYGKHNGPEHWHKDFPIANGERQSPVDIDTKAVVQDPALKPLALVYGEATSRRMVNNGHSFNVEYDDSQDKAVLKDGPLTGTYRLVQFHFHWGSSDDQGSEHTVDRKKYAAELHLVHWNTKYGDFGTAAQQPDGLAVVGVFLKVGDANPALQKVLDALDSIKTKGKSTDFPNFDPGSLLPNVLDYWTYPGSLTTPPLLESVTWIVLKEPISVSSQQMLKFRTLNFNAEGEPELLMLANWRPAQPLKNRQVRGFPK
T1 sequence (P22629 25-183): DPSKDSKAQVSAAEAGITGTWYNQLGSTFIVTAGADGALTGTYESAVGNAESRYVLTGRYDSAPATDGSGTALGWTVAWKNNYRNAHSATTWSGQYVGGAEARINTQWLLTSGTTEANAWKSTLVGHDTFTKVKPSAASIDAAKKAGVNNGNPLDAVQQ
carbonic anhydrase II (CA), sequence (P00921 whole entry): as the sequence (P00921 whole entry) above
T2 sequence (P22629 25-183): as the sequence (P22629 25-183) above
streptavidin (SA), sequence (P22629 25-183): as above

Regarding “2b-desthiobiotin: ligand strand 2 conjugated to desthiobiotin (SEQ 57) (TGGATCGTGATGACTGTCCCGACAAGCATACGTATCTCACT; desthiobiotin conjugated, position not given here)”, the Kd in series [1] stood at 0.008 µM. In addition, the “amplification efficiency in ID-PCR” value in series [2] is reported as “comparable to that of 2a-biotin”.
One may read the Ki as the equilibrium dissociation constant of an inhibitor or competing ligand from its target. Gly-Leu-CBS [GLCBS]: the values for the Ki in series [3] and in series [5] (FIG. 20 legend) were 0.47 µM and 0.009 µM, respectively. Further, the “Enrichment Factor” value in series [4] is on record as 225. Besides, in [5] (text b276), the Kd was 0.009 µM.
As for `O=C(O)CCCC[C@@H]1SC[C@@H]2NC(=O)N[C@@H]21` [biotin], the “Enrichment Factor” value in [6] is 860.
Take `CC(C)[C@H](NC(=O)[C@H](CCCNC(=N)N)NC(=O)N[C@@H](Cc1ccccc1)C(=O)O)C(=O)N[C@H](C=O)CCCNC(=N)N` [antipain] ({Phe-CO}-Arg-Val-Arg-aldehyde): the Ki is 0.0395 µM in series [7] and 0.1 µM in series [8].
Turning to “2s-GLCBS: GLCBS-DNA conjugate (SEQ 78) (DNA TGGATCGTGATGACTGTCCCGACAAGGATCCGTATCTCACT; DNA, backbone and methylation of C not given here; GLCBS conjugated at 3' end, further chemistry not fully specified)”, the inhibition constant Ki in [3] was found to be 0.38 µM.
As for `C[C@@H]1NC(=O)N[C@@H]1CCCCCC(=O)O` [desthiobiotin], the “Enrichment Factor” value in series [6] stood at 3078. The Kd in series [9] was 0.002 µM.
`COc1cccc2c1C(=O)c1c(O)c3c(c(O)c1C2=O)C[C@@](O)(C(C)=O)C[C@@H]3O[C@H]1C[C@H](N)[C@H](O)[C@H](C)O1` [daunomycin]: in [10], the Kd was 0.272 µM.
